Reference: ChEMBL document CHEMBL3507680, “University of Dundee, Gates Library screen for HepG2 cell viability”

Experiment: Human HepG2 cell viability assay in 384 well format
Type: toxicity, cell-based
Set-up: dose 125 nL, time 70.5 hour; concentration not given beside the values
Details: HepG2 cells, read-out: Inhibition

Structure (SMILES) | cytotoxicity at 70.5 h
CCSCC(C)NCc1nc(-c2cccnc2)no1 (stereo unspecified) | 19.3%
CC(C)(CN1C[C@H](Nc2ncccn2)[C@@H](C2CC2)C1)N1CCOCC1 | -11.6%
CCCS(=O)(=O)N1CCC2(CC1)CC(N1CCCC1)c1ccccc12 (stereo unspecified) | -8.52%
COCCCNC(=O)Cn1c(C)cc(=O)n2nc(-c3cccs3)nc12 | -7.89%
O=C(C1CCCOC1)N1CCCCc2ccccc21 (stereo unspecified) | -12.1%
CCC(C)(C)NC(=O)C1CC(=O)N(CC2CC2)C1 (stereo unspecified) | 27.7%
Cc1nc(S(=O)(=O)CCn2cccn2)n(C2CCCCC2)c1C | -4.93%
CC(C)Oc1cccc(CNC(Cc2ccsc2)c2nccs2)c1 (stereo unspecified) | -2.9%
Cc1cc(N2CCCC2Cn2nc(C)cc2C)n2ncnc2n1 (stereo unspecified) | 29%
COc1ccnc(NC(Cc2ccccc2)C(N)=O)n1 (stereo unspecified) | -3.74%
CCN1CCC2(CCN(Cc3ccc(OC)cc3)CC2)C1=O | -3.84%
N#Cc1ccc(S(=O)(=O)Nc2ccccc2C#N)cn1 | -6%
O=c1c(NCc2ccccn2)c(NCC(O)CN2CCOCC2)c1=O (stereo unspecified) | -12.9%
CCOc1ccc(CC(=O)N(CCC(=O)OC)CC2CCCO2)cc1 (stereo unspecified) | -14.3%
COc1ccc(S(=O)(=O)NC2(CC(N)=O)CCC2)cc1 | 20.9%
CN1CCC2(CC1)CNC(=O)c1ccccc1O2 | -13.6%
Cc1ccc(S(=O)(=O)Cc2nnc(C)n2C)cc1 | -2.49%
Cc1ccccc1C1CCN(CCn2cc(-c3nccn3C)nn2)C1 (stereo unspecified) | 2.36%
CS(=O)(=O)N[C@@H]1CCO[C@]2(CCN(C(=O)c3cnccn3)C2)C1 | -5.97%
O=C(NC1CCCC1)C1CCN(c2cc(-n3ccnc3)ncn2)CC1 | 12.8%
CC(=O)N1CCCC(c2cccc(-n3ccnc3)n2)C1 (stereo unspecified) | -7.9%

Structure (SMILES) | cytotoxicity at 70.5 h
COc1ccc(C(C)N2CCN(Cc3nccn3C)CC2)cc1Cl (stereo unspecified) | -6.8%
CC(=O)NCc1ccc(C(=O)N2CCCC2c2cnn(C)c2)o1 (stereo unspecified) | -13.1%
Cc1cc(-c2nn(C)c(Cl)c2CN2CC[C@@](O)(C3CCC3)[C@H](C)C2)no1 | 0.567%
Cc1ccc(CNCC(C)Oc2ccccn2)cc1 (stereo unspecified) | -33.7%
COc1ccc(C(=O)N2CC(=O)N(C3CCC3)CC(O)C2)cc1OC (stereo unspecified) | -5.23%
O=C(Cn1cc(-c2ccccc2)ncc1=O)NC1CCCCC1 | 5.64%
Cc1nccn1CC1CCCN1S(=O)(=O)Cc1cccc(F)c1 (stereo unspecified) | 18.7%
COCCn1c(C(=O)NCc2n[nH]c(C)n2)cc2ccccc21 | -0.294%
NC(=O)NCC(=O)N1C[C@H]2CC[C@@H]1CN(Cc1cscn1)C2 | 9.8%
CN(CCCc1cnn(C)c1)C(=O)C1CCC(=O)N(C2CCCC2)C1 (stereo unspecified) | -0.586%
CC(C(=O)NCc1ccc(N2CCCCCC2)nc1)S(C)(=O)=O (stereo unspecified) | -9.13%
CN1C[C@@H](O)[C@]2(CCN(C(=O)OCc3ccccc3)C2)S1(=O)=O | -10.5%
NC(=O)CN1CCC(c2cncc(-c3cccc(Cl)c3)n2)CC1 | 15.3%
O=C(C1CCCC1)N1CC2(CCNC2)OCc2ccccc21 (stereo unspecified) | -9.78%
Cn1cc(CCCN2CCN(Cc3cccc(O)c3)CC2)cn1 | -3.39%
COCCNC(=O)NC1(c2ccccc2F)CC1 | -5.87%
Cc1ccoc1C(=O)NC1CCN(Cc2cccc3c2OCCO3)CC1 | 6.48%
CCOC(=O)c1s/c(=N\C(=O)COc2cnc(C)cc2O)[nH]c1C | -19%
CN1CC(=O)N(c2ccccc2)CC12CCN(C(=O)CC1CC1)C2 (stereo unspecified) | 8.17%
CCOC[C@@H]1CCC[C@@]12CN(Cc1cccnc1)CCO2 | -5.78%
CC(C)(C)c1n[nH]cc1CN1CCc2nc3ccsc3c(=O)n2CC1 | 12.1%

Structure (SMILES) | cytotoxicity at 70.5 h
O=C(Nc1cccnc1)C1=Cc2ccccc2OC1 | 7.74%
Cc1noc(CN(Cc2ccc3c(c2)OCO3)Cc2ccc(C)o2)n1 | -15.7%
c1cn(Cc2nnc(C3CCN(C4CCNCC4)CC3)n2C2CC2)cn1 | -1.79%
CNC(=O)c1cc2c(nc1NCC1CC1)CCN(S(C)(=O)=O)CC2 | -23.3%
CC(NC(=O)NCCC1=CCCCC1)c1nncn1C (stereo unspecified) | 35.8%
COc1ccc(Cl)cc1-c1nc(N)nc(N(C)C)n1 | -6.28%
CN(Cc1cnn(C)c1)C(=O)CCS(=O)(=O)c1ccc2c(c1)OCCO2 | -112%
CCc1ccc(NC(=O)C2CCN(C(=O)COC)CC2)cc1 | -9.16%
CN(C)CCNc1ncccc1CNC(=O)Nc1cc(F)cc(F)c1 | -12%
CC(=O)c1ccc(C(=O)NCc2cccnc2N2CCCC(O)C2)s1 (stereo unspecified) | -14.1%
Cn1c(C2CC2)nc2c1CCN(Cc1nc3ccccc3s1)C2 | 23.2%
Cc1cc(CN2CCN(CC(O)c3ccc(C)c(C)c3)CC2)no1 (stereo unspecified) | -7.74%
c1cc(CN2CCOC3(CCCC3)C2)no1 | -2.72%
CCc1nnc2n1CCN(Cc1csc(-c3ccsc3)n1)C2 | -8.3%
CCN(Cc1ccccc1)C(=O)CCN1C[C@@H](C(=O)O)[C@H](C2CC2)C1 | -8.23%
c1cc(CNc2ncc(-c3cnccn3)c([C@@H]3CCCO3)n2)ccn1 | -5.57%
CS(=O)(=O)N1CCN(Cc2cccs2)CC(C(N)=O)C1 (stereo unspecified) | -2.16%
O=C(NCCC(=O)N1CCCC1)c1nn(-c2ccccc2F)cc1O | 35.9%
Cc1cc(C(=O)N2CCNC(c3ccccc3)C2)c2ccc(F)cc2n1 (stereo unspecified) | -4.04%
O=C(c1ccccc1F)N1CC2(CCNCC2)c2cc(Cl)ccc21 | -9.74%
CN(C)C(=O)CNC(CC(F)(F)F)c1ccc(Cl)cc1 (stereo unspecified) | 0.0833%

Structure (SMILES) | cytotoxicity at 70.5 h
CCOC(=O)c1coc(N2CCN(Cc3ccc(C)cc3)C(=O)C2)n1 | 0.779%
COCCn1ccc(=O)c(OCC(=O)Nc2ccc(Br)cc2)c1C | -7.36%
CC1CCCCN1C(=O)COc1nc(Cc2ccc(F)cc2)no1 (stereo unspecified) | -6.78%
COc1ccc(C2CCN(S(=O)(=O)CCCC#N)CC2)cc1 | -9.02%
COc1ccccc1C(=O)NS(=O)(=O)c1cncc(Br)c1 | 9.9%
Cc1cccc(C(=O)N2CCCN(CCc3scnc3C)CC2)c1 | -10.5%
Cc1cccc(CN2CCCC2c2cccc(CCC(=O)O)n2)c1 (stereo unspecified) | 15.7%
CN(C)c1nc(CNC(=O)NC2CCc3ccccc32)cs1 (stereo unspecified) | -0.66%
CCCn1cnnc1CNC(=O)CC1C(=O)NCCN1CC(C)(C)C (stereo unspecified) | -12.5%
COc1cccc(CN2CCC3(CCN(c4ncc(C)cn4)C3)C2=O)c1 (stereo unspecified) | -0.0299%
Cc1cc(CNC(=O)NCc2ccccc2N2CCOCC2)no1 | 1.76%
Cc1ncsc1C(=O)N1CCC(c2ncncc2-c2ccnc(N)c2)C1 (stereo unspecified) | -7%
Cc1ncc2c(n1)CN(CC(=O)Nc1ccncc1)CC2 | 1.41%
Cc1ncccc1NC(=O)[C@H]1C[C@@H]2CCN(Cc3nccs3)C[C@@H]2O1 | -2.41%
O=C1C(Sc2nnnn2C2CC2)CCN1c1ccccc1Cl (stereo unspecified) | -6.47%
COc1ccc(CNC2CCCc3nc(N(C)C)ncc32)c(OC)c1 (stereo unspecified) | -8.28%
CN(C)S(=O)(=O)N1C[C@H]2C[C@H](C(=O)Nc3ccccc3)[C@@H](C1)O2 | -5.82%
COc1ccc(C(=O)N2CCOC3(CNCCOC3)C2)c(OC)n1 (stereo unspecified) | 28%
